The values below are quoted from earlier work in PMC4642890 (Bioorganic & medicinal chemistry letters, 2015).

The subject of the series is neuropathic pain. Particulars: rodent model.

With “Tyr^1-DAla^2-Gly^3-Phe^4-Met^5-Pro^6-Leu^7-Trp^8-O-[3’,5’-Bzl(CF3)2] [TY005]”, the “effect on neuropathic pain” value is recorded as “reverse neuropathic pain”, the opioid-induced tolerance entry is on record as “no sign of opioid-induce tolerance” and the reward liability entry was “no development of reward liability”.

In the case of “Tyr^1-DAla^2-Gly^3-Phe^4-Met^5-Pro^6-Leu^7-Trp^8-NH-[3’,5’-Bzl(CF3)2] [TY027]”, the “effect on neuropathic pain” value is “reverse neuropathic pain”, the opioid-induced tolerance result is given as “no sign of opioid-induce tolerance” and the reward liability entry is reported as “no development of reward liability”.
